Data on six molecules can be found in ChEMBL document CHEMBL4196002, “Design, synthesis, mechanistic and histopathological studies of small-molecules of novel indole-2-carboxamides and pyrazino[1,2-a]indol-1(2H)-ones as potential anticancer agents effecting the reactive oxygen species production” (Eur J Med Chem, 2018).

One series relates to HT-29. Put plainly: Antiproliferative activity human HT-29 cells after 48 hrs by propidium iodide staining-based fluorescence assay. In kind it is functional, cell-based. The note with it: HT-29, 48 h.
A further series concerns A549. Briefly: Antiproliferative activity human A549 cells after 48 hrs by propidium iodide staining-based fluorescence assay. The conditions noted are these: A549, 48 h. Format: functional, cell-based.
A further series relates to MIA PaCa-2. Put plainly: Antiproliferative activity human MIAPaCa2 cells after 48 hrs by propidium iodide staining-based fluorescence assay. In kind it is functional, cell-based. The conditions noted are these: MIA PaCa-2, 48 h.
A short description of series [1]: Antioxidant activity assessed as DPPH radical scavenging activity at 10 uM after 30 mins dark incubation. In kind it is functional. A general note: DPPH is a stable violet radical that fades when it is reduced.
Series [2] is described as follows: Inhibition of ROS generation in human PMN at 12.5 ug/ml after 50 mins by luminol-based chemiluminescence assay relative to control. Format: functional.
Series [3] is described as follows: Inhibition of ROS generation in human PMN at 0.78 ug/ml after 50 mins by luminol-based chemiluminescence assay relative to control. In kind it is functional.
The nature of series [4]: Antioxidant activity assessed as DPPH radical scavenging activity at 50 uM after 30 mins dark incubation. In kind it is functional.
A short description of series [5]: Inhibition of ROS generation in human PMN at 1.56 ug/ml after 50 mins by luminol-based chemiluminescence assay relative to control. Format: functional.
A short description of series [6]: Inhibition of ROS generation in human PMN at 3.13 ug/ml after 50 mins by luminol-based chemiluminescence assay relative to control. Format: functional.
The nature of series [7]: Inhibition of ROS generation in human PMN at 6.25 ug/ml after 50 mins by luminol-based chemiluminescence assay relative to control. In kind it is functional.
Series [8] is described as follows: Antioxidant activity assessed as DPPH radical scavenging activity at 100 uM after 30 mins dark incubation. In kind it is functional.
A short description of series [9]: Cytotoxicity against human MCF10A cells assessed as cell viability at 50 uM after 96 hrs by MTT assay relative to control. In kind it is cell-based, MCF-10A. The note with it: read-out: Activity.
A further series is filed under the species Homo sapiens. Put plainly: (§1) Inhibition of ROS generation in human PMN after 50 mins by luminol-based chemiluminescence assay. In kind it is functional.
The nature of series [10]: as §1. Format: functional.
The test system of the next series is MCF7. Briefly: Antiproliferative activity human MCF7 cells after 48 hrs by propidium iodide staining-based fluorescence assay. Format: functional, cell-based. The conditions noted are these: MCF7, 48 h.
The test system of another series is PC-3. Put plainly: Antiproliferative activity human PC3 cells after 48 hrs by propidium iodide staining-based fluorescence assay. The note with it: PC-3, 48 h. Format: functional, cell-based.

As for `CCc1c2cc(Cl)ccc2n2cc(Cc3ccc(Cl)cc3)[nH]c(=O)c12`, the IC50 (as a rule, the midpoint of a concentration-inhibition curve) is 27.8 µM in the series with HT-29; 27.9 µM in the series with A549; 33.7 µM in the series with MIA PaCa-2; 7.77 µM in [10]; 26.5 µM in the series on MCF7; 15.8 µM with PC-3. The figures for the Activity in [1], in [4] and in series [8] were 50.4%, 70.1% and 84.5%, respectively. The inhibition (commonly the percentage by which the read-out fell short of the control) at 12.5 µg/mL in series [2] amounted to 83%. The molecule also came in with an inhibition at 0.78 µg/mL in series [3] of 25%. For the same molecule, testing at 1.56 µg/mL in series [5] gave an inhibition of 37%. For the same molecule, the inhibition at 3.13 µg/mL in series [6] amounted to 52%. Further, testing at 6.25 µg/mL in [7] gave an inhibition of 68%. The viability at 96 h, 50 µM in series [9] was determined as 90%. In addition, the inhibition entry in the series filed under Homo sapiens was “Dose-dependent effect”.
In turn, `CC(=O)Oc1ccccc1C(=O)O` [ASPIRIN] displayed an inhibition at 12.5 µg/mL in series [2] of 92%. This molecule returned an inhibition at 0.78 µg/mL in [3] of 33%. Further, at 1.56 µg/mL the inhibition in series [5] was 46%. For the same molecule, in series [6], the inhibition at 3.13 µg/mL was found to be 63%. In [7], this molecule came in with an inhibition at 6.25 µg/mL of 85%. In series [10], the IC50 is 9.78 µM.
On to `CCc1c(C(=O)NC(CO)Cc2ccccc2)[nH]c2ccc(Br)cc12` (stereo not drawn), for which the IC50 in the series with HT-29 came out at 6.5 µM; in the series with A549, 4.8 µM; in the series with MIA PaCa-2, 5.5 µM; in series [10], 10.6 µM; in the series with MCF7, 4.7 µM; with PC-3 it was 5.9 µM. The results for the Activity in series [1], in series [4] and in series [8] were 49.2%, 67.4% and 78.5%, respectively. Further, 12.5 µg/mL produced 67% inhibition in series [2]. Moreover, the inhibition at 0.78 µg/mL in [3] came to 19%. For the same molecule, 1.56 µg/mL produced 31% inhibition in [5]. The molecule further showed an inhibition at 3.13 µg/mL in series [6] of 45%. In addition, the inhibition at 6.25 µg/mL in series [7] came to 55%. Moreover, the viability at 96 h, 50 µM in series [9] amounted to 85%. Moreover, in the series filed under Homo sapiens, the inhibition result is “Dose-dependent effect”.
Regarding `CCc1c2cc(Br)ccc2n2cc(Cc3ccccc3)[nH]c(=O)c12`, the IC50 was 4.8 µM with HT-29; 4.5 µM with A549; 4.6 µM with MIA PaCa-2; 6.44 µM in series [10]; 3.6 µM in the series on MCF7; 3.4 µM in the series with PC-3. The Activity in series [1] stood at 54.5%; in [4] it was 73.9%; in series [8], 82.4%. Besides, the inhibition at 12.5 µg/mL in series [2] was determined as 70%. In [3], this molecule came in with an inhibition at 0.78 µg/mL of 25%. For the same molecule, the inhibition at 1.56 µg/mL in series [5] was found to be 44%. In series [6], this molecule registered an inhibition at 3.13 µg/mL of 52%. The inhibition at 6.25 µg/mL in series [7] was found to be 61%. The viability at 96 h, 50 µM in series [9] was found to be 82%. Also, in the series listed under Homo sapiens, the inhibition result is “Dose-dependent effect”.
On to `CCc1c(C(=O)NC(CO)Cc2ccccc2)[nH]c2ccc(Cl)cc12` (stereo not drawn), for which the IC50 worked out at 12.2 µM in the series on HT-29; 11.4 µM in the series on A549; 12.5 µM in the series with MIA PaCa-2; 13 µM in series [10]; 12.9 µM in the series on MCF7; 8.9 µM in the series with PC-3. Moreover, the Activity in series [1] stood at 39.9%; in [4], 58.7%; in series [8], 70.2%. Moreover, in [2], the inhibition at 12.5 µg/mL came to 68%. Further, in series [3], the inhibition at 0.78 µg/mL was 20%. The same molecule gave an inhibition at 1.56 µg/mL in [5] of 31%. In series [6], this molecule displayed an inhibition at 3.13 µg/mL of 42%. Moreover, testing at 6.25 µg/mL in series [7] gave an inhibition of 55%. The viability at 96 h, 50 µM in [9] came to 87%. The inhibition entry in the series listed under Homo sapiens was “Dose-dependent effect”.
With `Cc1c(C)c2c(c(C)c1O)CCC(C)(C(=O)O)O2` (stereo not drawn), the results for the Activity in series [1], in series [4] and in series [8] were 77.6%, 82.5% and 95.2%, respectively.
